Experiments:
sugar beet = test: Test B pre/postemergence sugar beet; assay type: in vivo, Beta vulgaris
Outline: (§1)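 Test chemicals in a non-phytotoxic solvent mixture with surfactant were sprayed preemergence onto planted seeds and postemergence onto plants 2 to 18 cm tall (1- to 4-leaf stage). After twelve to sixteen days in a greenhouse, injury was visually rated against untreated controls from 0 (no effect) to 10 (complete control).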

blackgrass = test: Test B pre/postemergence blackgrass; assay type: in vivo, Alopecurus myosuroides
Outline: as §1

pigweed = test: Test B pre/postemergence pigweed; assay type: in vivo, Amaranthus retroflexus
Outline: as §1

velvetleaf = test: Test B pre/postemergence velvetleaf; assay type: in vivo, Abutilon theophrasti
Outline: as §1

crabgrass = test: Test B pre/postemergence crabgrass; assay type: in vivo, Digitaria sanguinalis
Outline: as §1

rape = test: Test B pre/postemergence rape; assay type: in vivo, Brassica napus
Outline: as §1

corn = test: Test B pre/postemergence corn; assay type: in vivo, Zea mays
Outline: as §1

cocklebur = test: Test B pre/postemergence cocklebur; assay type: in vivo, Xanthium strumarium
Outline: as §1

wild oat = test: Test B pre/postemergence wild oat; assay type: in vivo, Avena fatua
Outline: as §1

wheat = test: Test B pre/postemergence wheat; assay type: in vivo, Triticum aestivum
Outline: as §1

giant foxtail = test: Test B pre/postemergence giant foxtail; assay type: in vivo, Setaria faberii
Outline: as §1

soybean = test: Test B pre/postemergence soybean; assay type: in vivo, Glycine max
Outline: as §1

bedstraw = test: Test B pre/postemergence bedstraw; assay type: in vivo, Galium aparine; conditions: Preemergence
Outline: as §1

morningglory = test: Test B pre/postemergence morningglory; assay type: in vivo, Ipomoea hederacea
Outline: as §1

purple nutsedge = test: Test B pre/postemergence purple nutsedge; assay type: in vivo, Cyperus rotundus
Outline: as §1

surinam grass = test: Test B pre/postemergence surinam grass; assay type: in vivo, Brachiaria decumbens
Outline: as §1

[1] = Postemergence, Rate 62 g/ha, scale of 0 to 10, 0 is no effect, 10 is complete control
[2] = Postemergence, Rate 125 g/ha, scale 0 to 10, 0 is no effect, 10 is complete control
[3] = Postemergence, Rate 500 g/ha, scale 0 to 10, 0 is no effect, 10 is complete control
[4] = Preemergence, Rate 62 g/ha, scale 0 to 10 (0 no effect, 10 complete control)
[5] = Preemergence, Rate 125 g/ha, scale 0 to 10, 0 is no effect, 10 is complete control
[6] = Rate 250 g/ha, Postemergence, scale of 0 to 10 where 0 is no effect and 10 is complete control
[7] = Preemergence, Rate 500 g/ha, scale of 0 to 10 where 0 is no effect and 10 is complete control

CCOCn1c(=O)on(C(=O)N(c2ccc(Cl)cc2)C(C)C)c1=O [Compound 534]
Sugarbeets plant response rating (sugar beet; [1]): 0 | Sugarbeets plant response rating (sugar beet; [2]): 0 | Plant response rating, Sugarbeets (sugar beet; [3]): 2 | Sugarbeets plant response rating (sugar beet; [4]): 3 | Sugarbeets plant response rating (sugar beet; [5]): 4 | Sugarbeets plant response rating (0 to 10 scale) (sugar beet; Preemergence, Rate 250 g/ha): 6 | Plant response rating, Sugarbeets (sugar beet; [6]): 3 | Blackgrass plant response rating (blackgrass; [1]): 0 | Blackgrass plant response rating (blackgrass; [2]): 2 | Plant response rating, Blackgrass (blackgrass; [3]): 7 | Blackgrass plant response rating (blackgrass; [4]): 8 | Blackgrass plant response rating (blackgrass; [5]): 9 | Blackgrass plant response rating (0 to 10 scale) (blackgrass; Preemergence, Rate 250 g/ha): 9 | Plant response rating, Blackgrass (blackgrass; [6]): 7 | Redroot pigweed plant response rating (pigweed; [1]): 0 | Redroot pigweed plant response rating (pigweed; [2]): 3 | Plant response rating, Redroot pigweed (pigweed; [3]): 7 | Redroot pigweed plant response rating (pigweed; [4]): 0 | Redroot pigweed plant response rating (pigweed; [5]): 0 | Redroot pigweed plant response rating (0 to 10 scale) (pigweed; Preemergence, Rate 250 g/ha): 0 | Plant response rating, Redroot pigweed (pigweed; [6]): 3 | Velvetleaf plant response rating (velvetleaf; [1]): 0 | Velvetleaf plant response rating (velvetleaf; [2]): 2 | Plant response rating, Velvetleaf (velvetleaf; [3]): 2 | Velvetleaf plant response rating (velvetleaf; [4]): 0 | Velvetleaf plant response rating (velvetleaf; [5]): 2 | Velvetleaf plant response rating (0 to 10 scale) (velvetleaf; Preemergence, Rate 250 g/ha): 2 | Velvetleaf plant response rating (velvetleaf; [7]): 3 | Plant response rating, Velvetleaf (velvetleaf; [6]): 2 | Crabgrass plant response rating (crabgrass; [2]): 5 | Plant response rating, Crabgrass (crabgrass; [3]): 8 | Crabgrass plant response rating (crabgrass; [4]): 9 | Crabgrass plant response rating (crabgrass; [5]): 10 | Crabgrass plant response rating (0 to 10 scale) (crabgrass; Preemergence, Rate 250 g/ha): 10 | Crabgrass plant response rating (crabgrass; [7]): 10 | Plant response rating, Crabgrass (crabgrass; [6]): 4 | Rape plant response rating (rape; [1]): 0 | Rape plant response rating (rape; [2]): 0 | Plant response rating, Rape (rape; [3]): 7 | Rape plant response rating (rape; [4]): 2 | Rape plant response rating (rape; [5]): 6 | Rape plant response rating (0 to 10 scale) (rape; Preemergence, Rate 250 g/ha): 6 | Plant response rating, Rape (rape; [6]): 0 | Corn plant response rating (corn; [1]): 0 | Corn plant response rating (corn; [2]): 0 | Plant response rating, Corn (corn; [3]): 0 | Corn plant response rating (corn; [4]): 0 | Corn plant response rating (corn; [5]): 0 | Corn plant response rating (0 to 10 scale) (corn; Preemergence, Rate 250 g/ha): 3 | Corn plant response rating (corn; [7]): 3 | Plant response rating, Corn (corn; [6]): 0 | Cocklebur plant response rating (cocklebur; [1]): 0 | Cocklebur plant response rating (cocklebur; [2]): 0 | Plant response rating, Cocklebur (cocklebur; [3]): 0 | Cocklebur plant response rating (cocklebur; [4]): 0 | Cocklebur plant response rating (cocklebur; [5]): 0 | Cocklebur plant response rating (0 to 10 scale) (cocklebur; Preemergence, Rate 250 g/ha): 0 | Cocklebur plant response rating (cocklebur; [7]): 0 | Plant response rating, Cocklebur (cocklebur; [6]): 0 | Wild oats plant response rating (wild oat; [1]): 0 | Wild oats plant response rating (wild oat; [2]): 0 | Plant response rating, Wild oats (wild oat; [3]): 3 | Wild oats plant response rating (wild oat; [4]): 3 | Wild oats plant response rating (wild oat; [5]): 8 | Wild oats plant response rating (0 to 10 scale) (wild oat; Preemergence, Rate 250 g/ha): 9 | Plant response rating, Wild oats (wild oat; [6]): 0 | Wheat plant response rating (wheat; [1]): 0 | Wheat plant response rating (wheat; [2]): 0 | Plant response rating, Wheat (wheat; [3]): 5 | Wheat plant response rating (wheat; [4]): 0 | Wheat plant response rating (wheat; [5]): 0 | Wheat plant response rating (0 to 10 scale) (wheat; Preemergence, Rate 250 g/ha): 3 | Plant response rating, Wheat (wheat; [6]): 3 | Giant foxtail plant response rating (giant foxtail; [2]): 3 | Plant response rating, Giant foxtail (giant foxtail; [3]): 8 | Giant foxtail plant response rating (giant foxtail; [4]): 9 | Giant foxtail plant response rating (giant foxtail; [5]): 9 | Giant foxtail plant response rating (0 to 10 scale) (giant foxtail; Preemergence, Rate 250 g/ha): 10 | Giant foxtail plant response rating (giant foxtail; [7]): 10 | Plant response rating, Giant foxtail (giant foxtail; [6]): 4 | Soybean plant response rating (soybean; [2]): 4 | Plant response rating, Soybean (soybean; [3]): 7 | Soybean plant response rating (soybean; [4]): 0 | Soybean plant response rating (soybean; [5]): 0 | Soybean plant response rating (0 to 10 scale) (soybean; Preemergence, Rate 250 g/ha): 0 | Plant response rating, Soybean (soybean; [6]): 6 | Bedstraw plant response rating (bedstraw; Rate 62 g/ha, scale 0 to 10 (0 no effect, 10 complete control)): 0 | Bedstraw plant response rating (bedstraw; Rate 125 g/ha, scale 0 to 10, 0 is no effect, 10 is complete control): 0 | Bedstraw plant response rating (0 to 10 scale) (bedstraw; Rate 250 g/ha): 0 | Morningglory plant response rating (morningglory; [1]): 2 | Morningglory plant response rating (morningglory; [2]): 2 | Plant response rating, Morningglory (morningglory; [3]): 3 | Morningglory plant response rating (morningglory; [4]): 0 | Morningglory plant response rating (morningglory; [5]): 0 | Morningglory plant response rating (0 to 10 scale) (morningglory; Preemergence, Rate 250 g/ha): 2 | Morningglory plant response rating (morningglory; [7]): 0 | Plant response rating, Morningglory (morningglory; [6]): 2 | Nutsedge plant response rating (purple nutsedge; [1]): 0 | Nutsedge plant response rating (purple nutsedge; [2]): 2 | Plant response rating, Nutsedge (purple nutsedge; [3]): 2 | Nutsedge plant response rating (purple nutsedge; [4]): 0 | Nutsedge plant response rating (purple nutsedge; [5]): 0 | Plant response rating, Nutsedge (purple nutsedge; [6]): 2 | B. signalgrass plant response rating (surinam grass; [1]): 0 | B. signalgrass plant response rating (surinam grass; [2]): 0 | Plant response rating, B. signalgrass (surinam grass; [3]): 6 | B. signalgrass plant response rating (surinam grass; [4]): 9 | B. signalgrass plant response rating (surinam grass; [5]): 9 | B. signalgrass plant response rating (0 to 10 scale, 0 is no effect, 10 is complete control) (surinam grass; Preemergence, Rate 250 g/ha): 9 | Plant response rating, B. signalgrass (surinam grass; [6]): 0

Source: patent US6737383B1, “Herbicidal oxadiazolidines” (priority 1999, dated 2004)
